Assay results from patent publication US6737383B1, “Herbicidal oxadiazolidines” (priority 1999, dated 2004).

Tests used:
rice = assay: Test B flood test rice; type: in vivo, Oryza sativa
Method in brief: (§1)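 Read-out is a visual response score from 0 (no effect) to 10 (complete control), assigned by comparison with untreated controls. Treatment was applied at the 2-leaf stage, and plants stayed in the greenhouse for twelve to sixteen days before scoring.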

pigweed = assay: Test B pre/postemergence pigweed; type: in vivo, Amaranthus retroflexus; settings: for Redroot pigweed plant response rating: scale of 0 to 10 where 0 is no effect and 10 is complete control
Method in brief: (§2)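 Test chemicals in a non-phytotoxic solvent mixture with surfactant were sprayed preemergence onto planted seeds and postemergence onto plants 2 to 18 cm tall (1- to 4-leaf stage). After twelve to sixteen days in a greenhouse, injury was visually rated against untreated controls from 0 (no effect) to 10 (complete control).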

smallflower flatsedge = assay: Test B flood test smallflower flatsedge; type: in vivo, Cyperus difformis
Method in brief: as §1

blackgrass = assay: Test B pre/postemergence blackgrass; type: in vivo, Alopecurus myosuroides; settings: for Blackgrass plant response rating: scale of 0 to 10 where 0 is no effect and 10 is complete control
Method in brief: as §2

sugar beet = assay: Test B pre/postemergence sugar beet; type: in vivo, Beta vulgaris; settings: for Sugarbeets plant response rating: scale of 0 to 10 where 0 is no effect and 10 is complete control
Method in brief: as §2

bamyardgrass = assay: Test B flood test barnyardgrass; type: in vivo, Echinochloa crus-galli
Method in brief: as §1

purple nutsedge = assay: Test B pre/postemergence purple nutsedge; type: in vivo, Cyperus rotundus; settings: for Nutsedge plant response rating: scale of 0 to 10 where 0 is no effect and 10 is complete control
Method in brief: as §2

rape = assay: Test B pre/postemergence rape; type: in vivo, Brassica napus; settings: for Rape plant response rating: scale of 0 to 10 where 0 is no effect and 10 is complete control
Method in brief: as §2

wheat = assay: Test B pre/postemergence wheat; type: in vivo, Triticum aestivum; settings: for Wheat plant response rating: scale of 0 to 10 where 0 is no effect and 10 is complete control
Method in brief: as §2

surinam grass = assay: Test B pre/postemergence surinam grass; type: in vivo, Brachiaria decumbens; settings: for B. signalgrass plant response rating: scale of 0 to 10 where 0 is no effect and 10 is complete control
Method in brief: as §2

crabgrass = assay: Test B pre/postemergence crabgrass; type: in vivo, Digitaria sanguinalis; settings: for Crabgrass plant response rating: scale of 0 to 10 where 0 is no effect and 10 is complete control
Method in brief: as §2

cocklebur = assay: Test B pre/postemergence cocklebur; type: in vivo, Xanthium strumarium; settings: for Cocklebur plant response rating: scale of 0 to 10 where 0 is no effect and 10 is complete control
Method in brief: as §2

duck salad = assay: Test B flood test duck salad; type: in vivo, Heteranthera limosa
Method in brief: as §1

giant foxtail = assay: Test B pre/postemergence giant foxtail; type: in vivo, Setaria faberii; settings: for Giant foxtail plant response rating: scale of 0 to 10 where 0 is no effect and 10 is complete control
Method in brief: as §2

soybean = assay: Test B pre/postemergence soybean; type: in vivo, Glycine max; settings: for Soybean plant response rating: scale of 0 to 10 where 0 is no effect and 10 is complete control
Method in brief: as §2

corn = assay: Test B pre/postemergence corn; type: in vivo, Zea mays; settings: for Corn plant response rating: scale of 0 to 10 where 0 is no effect and 10 is complete control
Method in brief: as §2

[1] = Postemergence (flood test), Rate 125 g/ha, scale 0 to 10, 0 is no effect, 10 is complete control
[2] = Rate 62 g/ha, Postemergence (flood test species), scale of 0 to 10 where 0 is no effect and 10 is complete control
[3] = Rate 500 g/ha, listed under Postemergence (flood test species), scale 0 to 10, 0 no effect, 10 complete control
[4] = flood test species, listed under Postemergence, Rate 250 g/ha, scale 0 to 10, 0 is no effect, 10 is complete control
[5] = Postemergence, Rate 125 g/ha, scale 0 to 10, 0 is no effect, 10 is complete control
[6] = Postemergence, Rate 250 g/ha, scale 0 to 10, 0 is no effect, 10 is complete control
[7] = Preemergence, Rate 62 g/ha, scale 0 to 10 (0 no effect, 10 complete control)
[8] = Rate 500 g/ha, Postemergence, scale 0 to 10, 0 no effect, 10 complete control

## CCN(CC)C(=O)n1oc(=O)n(-c2ccccc2C)c1=O [Compound 364]
rice; [1]
  Plant response rating, Rice: 0
rice; [2]
  Rice plant response rating: 0
rice; [3]
  Plant response rating, Rice: 0
rice; [4]
  Plant response rating, Rice: 0
pigweed; [5]
  Plant response rating, Redroot pigweed: 0
pigweed; [6]
  Plant response rating, Redroot pigweed: 0
pigweed; [7]
  Plant response rating, Redroot pigweed: 0
pigweed; Preemergence, Rate 125 g/ha
  Redroot pigweed plant response rating (0 to 10 scale): 0
pigweed; Preemergence, Rate 250 g/ha
  Redroot pigweed plant response rating: 0
pigweed; Preemergence, Rate 500 g/ha
  Redroot pigweed plant response rating: 0
pigweed; Rate 62 g/ha, Postemergence
  Redroot pigweed plant response rating: 0
pigweed; [8]
  Plant response rating, Redroot pigweed: 0
Smallflower flatsedge; [1]
  Plant response rating, S. Flatsedge: 0
Smallflower flatsedge; [2]
  S. Flatsedge plant response rating: 0
Smallflower flatsedge; [3]
  Plant response rating, S. Flatsedge: 3
Smallflower flatsedge; [4]
  Plant response rating, S. Flatsedge: 0
blackgrass; [5]
  Plant response rating, Blackgrass: 0
blackgrass; [6]
  Plant response rating, Blackgrass: 0
blackgrass; [7]
  Plant response rating, Blackgrass: 0
blackgrass; Preemergence, Rate 125 g/ha
  Blackgrass plant response rating (0 to 10 scale): 0
blackgrass; Preemergence, Rate 250 g/ha
  Blackgrass plant response rating: 1
blackgrass; Preemergence, Rate 500 g/ha
  Blackgrass plant response rating: 4
blackgrass; Rate 62 g/ha, Postemergence
  Blackgrass plant response rating: 0
blackgrass; [8]
  Plant response rating, Blackgrass: 2
Sugar beet; [5]
  Plant response rating, Sugarbeets: 0
Sugar beet; [6]
  Plant response rating, Sugarbeets: 0
Sugar beet; [7]
  Plant response rating, Sugarbeets: 0
Sugar beet; Preemergence, Rate 125 g/ha
  Sugarbeets plant response rating (0 to 10 scale): 0
Sugar beet; Preemergence, Rate 250 g/ha
  Sugarbeets plant response rating: 0
Sugar beet; Preemergence, Rate 500 g/ha
  Sugarbeets plant response rating: 0
Sugar beet; Rate 62 g/ha, Postemergence
  Sugarbeets plant response rating: 0
Sugar beet; [8]
  Plant response rating, Sugarbeets: 1
bamyardgrass; [1]
  Plant response rating, Barnyardgrass: 0
bamyardgrass; [2]
  Barnyardgrass plant response rating: 0
bamyardgrass; [3]
  Plant response rating, Barnyardgrass: 0
bamyardgrass; [4]
  Plant response rating, Barnyardgrass: 0
Purple nutsedge; [5]
  Plant response rating, Nutsedge: 0
Purple nutsedge; [6]
  Plant response rating, Nutsedge: 0
Purple nutsedge; [7]
  Plant response rating, Nutsedge: 0
Purple nutsedge; Preemergence, Rate 125 g/ha
  Nutsedge plant response rating (0 to 10 scale): 0
Purple nutsedge; Preemergence, Rate 250 g/ha
  Nutsedge plant response rating: 0
Purple nutsedge; Rate 62 g/ha, Postemergence
  Nutsedge plant response rating: 0
Purple nutsedge; [8]
  Plant response rating, Nutsedge: 0
rape; [5]
  Plant response rating, Rape: 0
rape; [6]
  Plant response rating, Rape: 0
rape; [7]
  Plant response rating, Rape: 0
rape; Preemergence, Rate 125 g/ha
  Rape plant response rating (0 to 10 scale): 0
rape; Preemergence, Rate 250 g/ha
  Rape plant response rating: 0
rape; Preemergence, Rate 500 g/ha
  Rape plant response rating: 2
rape; Rate 62 g/ha, Postemergence
  Rape plant response rating: 0
rape; [8]
  Plant response rating, Rape: 0
wheat; [5]
  Plant response rating, Wheat: 0
wheat; [6]
  Plant response rating, Wheat: 0
wheat; [7]
  Plant response rating, Wheat: 0
wheat; Preemergence, Rate 125 g/ha
  Wheat plant response rating (0 to 10 scale): 0
wheat; Preemergence, Rate 250 g/ha
  Wheat plant response rating: 0
wheat; Preemergence, Rate 500 g/ha
  Wheat plant response rating: 0
wheat; Rate 62 g/ha, Postemergence
  Wheat plant response rating: 0
wheat; [8]
  Plant response rating, Wheat: 0
Surinam grass; [5]
  Plant response rating, B. signalgrass: 0
Surinam grass; [6]
  Plant response rating, B. signalgrass: 0
Surinam grass; [7]
  Plant response rating, B. signalgrass: 0
Surinam grass; Preemergence, Rate 125 g/ha
  B. signalgrass plant response rating (0 to 10 scale, 0 is no effect, 10 is complete control): 0
Surinam grass; Preemergence, Rate 250 g/ha
  B. signalgrass plant response rating: 0
Surinam grass; Preemergence, Rate 500 g/ha
  B. signalgrass plant response rating: 3
Surinam grass; Rate 62 g/ha, Postemergence
  B. signalgrass plant response rating: 0
Surinam grass; [8]
  Plant response rating, B. signalgrass: 1
crabgrass; [5]
  Plant response rating, Crabgrass: 0
crabgrass; [6]
  Plant response rating, Crabgrass: 0
crabgrass; [7]
  Plant response rating, Crabgrass: 0
crabgrass; Preemergence, Rate 125 g/ha
  Crabgrass plant response rating (0 to 10 scale): 0
crabgrass; Preemergence, Rate 250 g/ha
  Crabgrass plant response rating: 2
crabgrass; Preemergence, Rate 500 g/ha
  Crabgrass plant response rating: 5
crabgrass; Rate 62 g/ha, Postemergence
  Crabgrass plant response rating: 0
crabgrass; [8]
  Plant response rating, Crabgrass: 2
cocklebur; [5]
  Plant response rating, Cocklebur: 0
cocklebur; [6]
  Plant response rating, Cocklebur: 0
cocklebur; [7]
  Plant response rating, Cocklebur: 0
cocklebur; Preemergence, Rate 125 g/ha
  Cocklebur plant response rating (0 to 10 scale): 0
cocklebur; Preemergence, Rate 250 g/ha
  Cocklebur plant response rating: 0
cocklebur; Preemergence, Rate 500 g/ha
  Cocklebur plant response rating: 0
cocklebur; Rate 62 g/ha, Postemergence
  Cocklebur plant response rating: 0
cocklebur; [8]
  Plant response rating, Cocklebur: 2
Duck salad; [1]
  Plant response rating, Ducksalad: 0
Duck salad; [2]
  Ducksalad plant response rating: 0
Duck salad; [3]
  Plant response rating, Ducksalad: 0
Duck salad; [4]
  Plant response rating, Ducksalad: 0
Giant foxtail; [5]
  Plant response rating, Giant foxtail: 3
Giant foxtail; [6]
  Plant response rating, Giant foxtail: 6
Giant foxtail; [7]
  Plant response rating, Giant foxtail: 3
Giant foxtail; Preemergence, Rate 125 g/ha
  Giant foxtail plant response rating (0 to 10 scale): 6
Giant foxtail; Preemergence, Rate 250 g/ha
  Giant foxtail plant response rating: 9
Giant foxtail; Preemergence, Rate 500 g/ha
  Giant foxtail plant response rating: 10
Giant foxtail; Rate 62 g/ha, Postemergence
  Giant foxtail plant response rating: 0
Giant foxtail; [8]
  Plant response rating, Giant foxtail: 8
soybean; [5]
  Plant response rating, Soybean: 2
soybean; [6]
  Plant response rating, Soybean: 3
soybean; [7]
  Plant response rating, Soybean: 0
soybean; Preemergence, Rate 125 g/ha
  Soybean plant response rating (0 to 10 scale): 0
soybean; Preemergence, Rate 250 g/ha
  Soybean plant response rating: 0
soybean; Preemergence, Rate 500 g/ha
  Soybean plant response rating: 0
soybean; Rate 62 g/ha, Postemergence
  Soybean plant response rating: 0
soybean; [8]
  Plant response rating, Soybean: 3
corn; [5]
  Plant response rating, Corn: 0
corn; [6]
  Plant response rating, Corn: 2
corn; [7]
  Plant response rating, Corn: 0
corn; Preemergence, Rate 125 g/ha
  Corn plant response rating (0 to 10 scale): 0
corn; Preemergence, Rate 250 g/ha
  Corn plant response rating: 0
corn; Preemergence, Rate 500 g/ha
  Corn plant response rating: 0
corn; Rate 62 g/ha, Postemergence
  Corn plant response rating: 0
corn; [8]
  Plant response rating, Corn: 3
